One compound from ChEMBL document CHEMBL2073790, “TP-search Transporter Database” (Jpn Pharmacol Ther, 1998) can be followed below.

Series [1] addresses T1, Solute carrier organic anion transporter family member 1A1 (Rattus norvegicus, UniProt P46720).
T1 sequence (P46720 whole entry): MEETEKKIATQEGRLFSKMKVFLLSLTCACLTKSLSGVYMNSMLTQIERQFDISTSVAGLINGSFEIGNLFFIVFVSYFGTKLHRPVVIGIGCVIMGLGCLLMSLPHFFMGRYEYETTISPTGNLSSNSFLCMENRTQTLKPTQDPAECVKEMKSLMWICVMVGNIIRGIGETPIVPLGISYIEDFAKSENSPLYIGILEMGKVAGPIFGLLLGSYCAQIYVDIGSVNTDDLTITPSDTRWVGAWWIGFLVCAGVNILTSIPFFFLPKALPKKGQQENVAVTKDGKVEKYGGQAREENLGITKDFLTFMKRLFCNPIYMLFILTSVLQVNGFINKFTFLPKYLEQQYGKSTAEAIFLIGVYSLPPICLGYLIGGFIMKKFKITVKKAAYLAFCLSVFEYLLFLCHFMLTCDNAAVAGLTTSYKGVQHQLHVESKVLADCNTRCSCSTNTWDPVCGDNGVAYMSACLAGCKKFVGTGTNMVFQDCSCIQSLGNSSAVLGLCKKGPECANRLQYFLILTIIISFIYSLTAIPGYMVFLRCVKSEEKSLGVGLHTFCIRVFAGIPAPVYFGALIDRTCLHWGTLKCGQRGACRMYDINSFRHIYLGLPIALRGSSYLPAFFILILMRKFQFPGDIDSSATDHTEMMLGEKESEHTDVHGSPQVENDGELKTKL
Description: (§1) TP_TRANSPORTER: Northern blot in vivo Wistar rat. It is filed as functional, organism-based.

Series [2] addresses Multidrug resistance protein 1a (Rattus norvegicus) (UniProt Q6PSM0). Described as §1. It is filed as functional, organism-based.

Multidrug resistance protein 1a (Rattus norvegicus), sequence (Q6PSM0 as listed by the source): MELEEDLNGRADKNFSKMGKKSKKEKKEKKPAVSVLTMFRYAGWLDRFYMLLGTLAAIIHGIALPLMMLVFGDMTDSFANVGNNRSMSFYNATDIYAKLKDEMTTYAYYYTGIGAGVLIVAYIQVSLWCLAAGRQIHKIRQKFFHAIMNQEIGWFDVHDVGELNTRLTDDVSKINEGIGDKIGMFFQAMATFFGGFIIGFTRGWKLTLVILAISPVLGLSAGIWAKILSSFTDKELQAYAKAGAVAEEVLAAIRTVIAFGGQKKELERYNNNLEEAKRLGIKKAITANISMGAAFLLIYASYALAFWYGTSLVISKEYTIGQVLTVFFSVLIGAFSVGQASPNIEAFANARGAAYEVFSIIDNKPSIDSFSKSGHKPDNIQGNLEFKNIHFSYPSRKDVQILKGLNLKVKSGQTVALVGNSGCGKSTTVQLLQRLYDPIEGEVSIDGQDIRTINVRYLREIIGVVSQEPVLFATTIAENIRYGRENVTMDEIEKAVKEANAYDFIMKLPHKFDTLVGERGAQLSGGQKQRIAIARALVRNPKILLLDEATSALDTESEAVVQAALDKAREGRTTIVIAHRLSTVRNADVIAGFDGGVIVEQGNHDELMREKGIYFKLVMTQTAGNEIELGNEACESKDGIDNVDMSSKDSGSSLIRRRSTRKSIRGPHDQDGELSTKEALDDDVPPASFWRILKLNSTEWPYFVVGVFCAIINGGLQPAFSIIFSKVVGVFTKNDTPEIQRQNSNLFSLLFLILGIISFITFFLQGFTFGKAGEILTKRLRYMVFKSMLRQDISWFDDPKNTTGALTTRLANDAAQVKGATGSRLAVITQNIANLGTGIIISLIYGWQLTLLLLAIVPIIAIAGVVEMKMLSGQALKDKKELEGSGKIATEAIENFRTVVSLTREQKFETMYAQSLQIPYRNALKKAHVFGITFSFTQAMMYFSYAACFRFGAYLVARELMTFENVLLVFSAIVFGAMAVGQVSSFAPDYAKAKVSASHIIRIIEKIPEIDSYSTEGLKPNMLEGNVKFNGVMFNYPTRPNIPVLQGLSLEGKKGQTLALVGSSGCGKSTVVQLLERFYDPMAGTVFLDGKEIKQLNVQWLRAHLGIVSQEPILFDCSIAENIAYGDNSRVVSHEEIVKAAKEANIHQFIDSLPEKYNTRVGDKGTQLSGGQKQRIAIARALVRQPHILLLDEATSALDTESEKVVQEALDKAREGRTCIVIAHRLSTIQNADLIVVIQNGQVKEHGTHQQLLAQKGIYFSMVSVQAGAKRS

For the compound `O=C=Nc1cccc2ccccc12` [alpha-naphthylisocyanate], the Activity entry in series [1] and in series [2] was “inducer [+]” each time.
